Test results from patent publication US20090105349A1, “ANDROGEN MODULATORS” (WARNER-LAMBERT COMPANY LLC, priority 2004, published 2009).
Residue numbers refer to the chain shown, from its start. Where two headings read alike, the source gives them in different places.

What was measured:
spinal BMD = conditions: after 7 years of treatment; cited from earlier work
[1] = system: male Syrian hamsters (ear sebaceous glands, sebum); assay: Animal model for inhibition of sebum production (hamster ear); assay type: in vivo, Syrian hamster; conditions: 3 % w/v, 4 weeks; for % CE Reduction / % WE Reduction: Vehicle #1 (polyethylene glycol/transcutol/ethanol 20/20/60), topical twice daily, vs vehicle control; for % WE & CE Reduction: Vehicle #1, topical twice daily, sum of WE and CE
Description: Arch. Derm. […] This model uses male Syrian hamsters, whose ears contain sebaceous glands.
Testing for sebum inhibition was carried out in the following manner. Male Syrian hamsters aged 9 to 10 weeks were introduced into the laboratory environment and acclimated for 2 weeks prior to use in the study. Each group consisted of 5 animals and run in parallel with vehicle and positive controls. Prior to administration, a sufficient quantity each compound was dissolved in 1 mL of the vehicle identified in Table III to achieve the final concentration reported in Table Ill.
Animals were dosed topically twice daily, five days a week, for 4 weeks. Each dose consisted of 25 micro liters of vehicle control or drug. The dose was applied to the ventral surfaces of both the right and left ears. All animals were sacrificed approximately 18-24 hours after the final dose. The right ears were collected from each animal and used for sebum analysis.
The ears were prepped for HPLC analysis in the following manner. One 8 mm distal biopsy punch was taken, just above the anatomical “V” mark in the ear to normalize the sample area. The punch was pulled apart. The ventral biopsy surface (the area where the topical dose was directly applied to the sebaceous glands) was retained for testing and the dorsal surface of the biopsy punch was discarded.
Tissue samples were blown with N2 gas and stored at −80° C. under nitrogen until HPLC analysis. In addition to ear samples, an aliquot of each drug and vehicle (at least 250 ul) was also stored at −80° C. for inclusion in the HPLC analysis.
HPLC analysis was carried out on an extract of the tissue sample. Tissue samples were contacted with 3 ml of solvent (a 4:1 admixture of 2,2,4-trimethylpentane and isopropyl alcohol). The mixture was shaken for 15 minutes and stored overnight at room temperature, protected from light. The next morning 1 milliliter of water was added to the sample and shaken for 15 minutes. The sample was then centrifuged at approximately 1500 rpm for 15 minutes. Two ml of the organic phase (top layer) was transferred to a glass vial, dried at 37° C., under nitrogen, for approximately 1 hour, and then lyophilized for approximately 48 hours. The samples were then removed from the lyophilizer and each vial was reconstituted with 600 μl of solvent A (trimethylpentane/tetrahydrofuran (99:1). The samples were then recapped and vortexed for 5 minutes.
200 μl of each sample was then transferred to a pre-labeled 200 μl HPLC vial with 200 μL glass inserts. The HPLC vials were placed in the autosampler tray for the Agilent 1100 series HPLC unit. The Agilent 1100 HPLC system consisted of a thermostated autosampler, a quarternary pump, a column heater, and an A/D interface module. All components were controlled by Agilent ChemStation software. A Waters Spherisorb S3W 4.6×100 mm analytical column was maintained at 30° C. by the Agilent column heater unit. The HPLC autosampler was programmed to maintain the sample temperature at 20 C throughout the run.
10 uL of each sample was injected in triplicate into the column. Two solvents were used for the solvent gradient. Solvent A was an admixture of trimethylpentane and tetrahydrofuran (99:1). Solvent B was ethylacetate. The gradient utilized is described in the table below: […]
The Sedex 75 Evaporative Light Scattering Detector (ELSD) was operated at 45° C. with a gain of 5, and N2 pressure maintained at 3.1 bar. Analog signal obtained by the instrument was sent to the Agilent A/D interface module where it was converted to a digital output. The conversion was based on a 10000 mAU/volt set point and the data rate was set at 10 Hz (0.03 min). The resulting digital output was then feed into the Agilent ChemStation software for integration of the peak area.

[2] = system: male C3H/HeN mice (telogen to anagen conversion); assay type: in vivo
From the text: While this model is a significant improvement over the telogen conversion assay as a model for human baldness, it suffers from a number of practical disadvantages. The macaques are expensive, relatively rare, labor intensive to maintain, and require long wash out periods between testing. […] Thus, the model relates to a modification of the existing telogen conversion assay. Male C3H/HeN mice approximately 7 weeks old are utilized. These animals are also uniformly in telogen, like their female counterparts. However, once shaven, the androgens inherently present in these male mice inhibit the conversion of the hair follicles to the anagen phase. An anti-androgen will block this androgenic effect and the follicles will convert to anagen, like their female counterparts.
The compounds shown below in Table IV were submitted for further testing utilizing the modified telogen conversion assay, described above. The testing was carried out in the following manner.
Male C3H/HeN mice, 6 to 7 weeks old (Charles River Laboratories, Raleigh, N.C.) were used for the study. Fur was clipped from the dorsal region of the mice prior to initiation of the study. Only mice with pink skin, a visual indication of the telogen phase, were selected for inclusion in the study.
A second group of animals received only the vehicle to serve as a control. Treatments were applied twice daily for 4 weeks.
The hair growth response was quantified by recording, for each animal, the day on which signs of hair growth first appeared over the treated area. The first sign of anagen was the darkening of skin color as melanocytes in the follicles started to synthesize melanin in preparation for the production of pigmented hairs. […] The day on which anagen was initiated in 50% of the test animals for both the treatment group and the vehicle group is reported below in Table IV.

[3] = target: T1, androgen receptor in MDA-MB453-MMTV clone 54-19 cells (Homo sapiens, UniProt P10275); assay: AR antagonist cell assay (MMTV-luciferase reporter); assay type: cell-based
T1 sequence (P10275 1-920 Q868H): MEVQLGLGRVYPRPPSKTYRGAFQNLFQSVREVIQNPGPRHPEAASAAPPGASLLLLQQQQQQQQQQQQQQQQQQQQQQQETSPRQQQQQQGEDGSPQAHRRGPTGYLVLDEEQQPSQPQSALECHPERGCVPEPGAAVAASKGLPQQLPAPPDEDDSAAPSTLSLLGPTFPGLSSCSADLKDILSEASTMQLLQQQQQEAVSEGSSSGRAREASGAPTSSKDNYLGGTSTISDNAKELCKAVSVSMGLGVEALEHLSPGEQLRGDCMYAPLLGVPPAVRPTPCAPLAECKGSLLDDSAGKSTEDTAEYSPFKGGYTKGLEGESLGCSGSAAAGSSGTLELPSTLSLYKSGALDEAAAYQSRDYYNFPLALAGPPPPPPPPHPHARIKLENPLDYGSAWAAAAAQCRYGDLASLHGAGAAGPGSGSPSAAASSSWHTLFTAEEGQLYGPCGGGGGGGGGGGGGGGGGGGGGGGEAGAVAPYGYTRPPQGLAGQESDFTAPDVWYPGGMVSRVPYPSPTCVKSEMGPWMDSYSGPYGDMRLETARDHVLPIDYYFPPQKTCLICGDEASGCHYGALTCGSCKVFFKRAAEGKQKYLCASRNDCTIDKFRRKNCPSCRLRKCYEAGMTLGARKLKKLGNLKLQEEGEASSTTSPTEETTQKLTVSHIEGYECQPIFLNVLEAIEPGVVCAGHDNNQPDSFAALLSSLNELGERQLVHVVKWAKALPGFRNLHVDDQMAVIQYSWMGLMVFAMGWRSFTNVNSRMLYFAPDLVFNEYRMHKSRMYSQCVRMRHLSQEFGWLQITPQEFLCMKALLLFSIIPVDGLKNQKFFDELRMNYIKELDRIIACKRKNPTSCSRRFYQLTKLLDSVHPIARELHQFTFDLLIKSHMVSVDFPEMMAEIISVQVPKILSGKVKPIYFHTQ

[4] = target: T2, hAR (human androgen receptor) (Homo sapiens, UniProt P10275); assay: Competitive hAR binding assay with 3H-DHT tracer
T2 construct: made in house; host or cells: baculovirus/Sf9 insect cells (crude extract)
T2 sequence (P10275 1-920): T1 sequence (P10275 1-920 Q868H) with H868Q

[5] = MDA-MB453-MMTV clone 54-19, inhibition of DHT induced luciferase, 17 hr; mean of multiple tests; read-out: AR Cell IC50
[6] = 1 % w/v, Vehicle #2, topical twice daily for 4 weeks
[7] = baculovirus/Sf9 hAR extract, 1 nM 3H-DHT, one hour at 4° C, mean of multiple tests, read-out: AR Binding IC50
[8] = read-out: AR Cell IC50; MDA-MB453-MMTV clone 54-19, inhibition of DHT induced luciferase, 17 hr; mean of multiple tests

For `NCCCC(O)(P(=O)(O)O)P(=O)(O)O` [alendronate], the “increase in spinal BMD” value (spinal BMD) is given as ≤ 11%.
With `Cc1ccccc1Oc1ccc(C#N)cc1Cl` [Example 4, 3-Chloro-4-o-tolyloxy-benzonitrile] the “% CE Reduction” value [1] was 76%, the “% WE Reduction” value [1] was 90% and the “% WE & CE Reduction” value [1] was 166%. For the same compound, the “Anagen-Trx (day on which anagen was initiated in 50% of the test animals)” value ([2]; 3 % w/v, Vehicle #2 (polyethylene glycol/ethanol 30/70), topical twice daily for 4 weeks) was >35 days.
With `N#Cc1ccc(Oc2ccccc2F)c(Cl)c1` [Example 27, 3-Chloro-4-(2-fluoro-phenoxy)-benzonitrile] the IC50 [3, 5] was 46 nM and the “Anagen-Trx (day on which anagen was initiated in 50% of the test animals)” value [2, 6] was >35 days.
With `Cc1ccccc1Oc1ccc(C#N)c(Cl)c1` [Example 7, 2-Chloro-4-o-tolyloxy-benzonitrile] the “% CE Reduction” value [1] was 71%, the “% WE Reduction” value [1] was 87% and the “% WE & CE Reduction” value [1] was 158%. The “Anagen-Trx (day on which anagen was initiated in 50% of the test animals)” value [2, 6] was >60 days and the “Anagen-Trx (day on which anagen was initiated in 50% of the test animals)” value ([2]; 5 % w/v, Vehicle #2, topical twice daily for 4 weeks) was 35 days.
With `COc1cccc(Oc2ccc(C#N)c(C(F)(F)F)c2)c1OC` [Example 91, 4-(2,3-Dimethoxy-phenoxy)-2-trifluoromethyl-benzonitrile] the IC50 [4, 7] was 272 nM, the IC50 [3, 8] was 28 nM and the “Anagen-Trx (day on which anagen was initiated in 50% of the test animals)” value ([2]; mouse, in vivo) was 20 days.
`CC(C)Oc1ccccc1Oc1ccc(C#N)c(Cl)c1` [Example 63, 2-Chloro-4-(2-isopropoxy-phenoxy)-benzonitrile] showed an IC50 [4] of 70 nM and an IC50 [3, 8] of 4 nM.
`C=CCc1ccccc1Oc1ccc(C#N)c(Cl)c1` [Example 51, 4-(2-Allyl-phenoxy)-2-chloro-benzonitrile] showed an IC50 [4] of 62 nM and an IC50 [3, 5] of 252 nM.
Work on `COc1ccc(C)cc1Oc1ccc(C#N)c(Cl)c1` [Example 33, 2-Chloro-4-(2-methoxy-5-methyl-phenoxy)-benzonitrile] yielded an IC50 [4, 7] of 232 nM and an IC50 [3, 8] of 42 nM.
In the case of `CCOc1cc(C)ccc1Oc1ccc(C#N)c(Cl)c1` [Example 57, 2-Chloro-4-(2-ethoxy-4-methyl-phenoxy)-benzonitrile], the IC50 [4] is reported as 7 nM and the IC50 [3, 5] is reported as > 1000 nM.
In the case of `COc1cc(F)ccc1Oc1ccc(C#N)cc1Cl` [Example 29, 3-Chloro-4-(4-fluoro-2-methoxy-phenoxy)-benzonitrile], the IC50 [4, 7] is reported as 135 nM, the IC50 [3, 8] is reported as 67 nM and the “Anagen-Trx (day on which anagen was initiated in 50% of the test animals)” value ([2]; mouse, in vivo) is reported as 25 days.
In the case of `N#Cc1ccc(Oc2ccc(O)cc2)cc1C(F)(F)F` [Example 80, 4-(4-Hydroxy-phenoxy)-2-trifluoromethyl-benzonitrile], the IC50 [4, 7] is reported as 207 nM and the IC50 [3, 8] is reported as 62 nM.
Compound `N#Cc1ccc(Oc2ccccc2C(F)(F)F)c(Cl)c1` [Example 20, 3-Chloro-4-(2-trifluoromethyl-phenoxy)-benzonitrile] has an IC50 [4, 7] of 253 nM and an IC50 [3, 8] of 51 nM.
